Test results from US20140193521A1, “Drug Delivery Systems and Method of Reducing Foal Infection by Treating Mares with Gallium Salts” (priority 2011, published 2014).

What was measured:
[1] = administered to the foal; cited from earlier work
R equi = details: administered to the foal; cited from earlier work
[2] = Whole blood and serum gallium in horses after gallium nitrate by nasogastric tube / oral dosing; format: in vivo
Description: FIG. 1 is a graph showing whole blood concentrations (micromoles/g) of horses in which gallium nitrate was administered daily after pulling blood for two days pre-administration. The horses were treated for five days.
(§1) For example, without limitation, in horses fed the same amount, the blood concentration increased from 0.0000231 micromoles/g to 0.0009004 micromoles/g well below what is needed to kill R. equi in the blood, but is a […] increase in blood concentration over time. Previous in vitro data found anything over 0.050 micromoles/ml killed R. equi in culture, and higher concentrations worked better. Administering oral gallium nitrate to mares daily achieved about 1.5 to 7.1 micromoles of gallium per gram of dry feces. This also led to a reduction in the concentration of R. equi in the feces of the mares.
(§2) For example, without limitations, two adult horses were given a single dose of gallium nitrate by nasogastric tube at a dose of 9.2 mg/kg at 1% gallium nitrate concentration. […] Based on tis work, two more horses were dosed with 9.2 mg/kg of daily for 6 days to determine steady state values. […] There were traces of gallium present in both the red blood cells (“RBC”) and smaller amounts in the serum prior to any medication administration. It appears to concentrate in the RBC and move into the serum. The significance of this is unknown.

[3] = 300 to 1500 mg/kg intraperitoneally; cited from earlier work
[4] = Safety / adverse effects of gallium nitrate in horses; format: in vivo
Description: as §2

R. equi [5] = details: reported; cited from earlier work
virulent R. equi [6] = test: Virulent R. equi in feces of mares by real-time TaqMan PCR of vapA gene; format: in vivo, Rhodococcus equi
Description: As part of a non-limiting example of an embodiment of the invention, virulent R. equi in feces was measured in the feces using the following method. Two milliliters of PBS were added to 1 g of each fecal sample in a conical tube. Thereafter, each sample was vortexed for 10 seconds and centrifuged at 13,000× g for 1 minute. In order to minimize contamination, all pipetting steps were performed in a laminar flow cabinet. Nucleic acid purification from 180 μl of supernatant fluid was performed using an automated nucleic acid extraction system (CAS-1820 X-tractor Gene, Corbett Life Science, Sydney, Australia) according to the manufacturer's recommendations. A real-time TaqMan PCR assay for R. equi has been established and validated. The assay is based on the detection of a specific 75 base-pair long product of the vapA gene of R. equi (GenBank accession number AF116907; oligonucleotides: forward primer […], reverse primer […], probe […]). Each PCR reaction contained 400 nM of each primer, 80 nM of the TaqMan probe and mastermix (TaqMan Universal PCR Mastermix, Applied Biosystems, Foster City, Calif.) and 1 μL of the gDNA sample in a final volume of 12 μL. […] DNA extraction and amplification efficiency were verified by quantitating the universal bacterial 16S rRNA gene. Absolute quantitation of R. equi target molecules was performed using a standard curve and expressed as R. equi vapA target genes per 1 g of feces. […]
The number of CFU/g of either virulent R. equi in feces was estimated using real-time PCR. Because these samples were collected serially from individual mares, these longitudinal data were analyzed using mixed-effects modeling, with time (number of days since last known breeding date) and treatment group modeled as fixed effects, and individual mare modeled as a random effect. […] The count of positive samples were determined for each mare, and Poisson regression analysis was used to examine the effects of treatment. […]

[7] = pregnant mice, cited from earlier work
[8] = Fecal concentration of gallium in mares given oral gallium nitrate daily; format: in vivo; details: 9.2 mg/kg of 1% GaN daily from day 320
Excerpt: FIG. 3 is a graph showing fecal concentration of gallium in ppm of gram of feces in control mares versus treated.
as §1
To determine the number of virulent colonies on each plate, a modified colony immunoblot method was used, as previously described (E.g., Grimm M B, Cohen N D, Slovis N M, et al. Evaluation of mares from a Thoroughbred breeding farm as a source of Rhodococcus equi for their foals using quantitative culture and a colony immunoblot assay. Am J Vet Res 2007; 68:63-71). Briefly, this procedure entails applying nitrocellulose membranes to culture plates to transfer bacterial surface proteins, blotting the membranes using a murine monoclonal antibody against the vapA protein, and then using a labeled secondary antibody to detect the presence of vapA-positive (i.e. virulent) colonies. […]

R. equi [9] = details: cited from earlier work
R. equi [10] = test: Airborne concentration of R. equi in foaling stalls shortly after foaling; format: in vivo, Rhodococcus equi; details: stall air after foaling
Description: As part of a non-limiting example of an embodiment of the invention, the effect of oral GaN on the concentrations of virulent R. equi in the feces of the mares was determined. Twenty-one horses were randomly assigned in a paired block design to ensure that 10 mares were part of the treated group and 11 mares were part of the control group. These twenty-one Arabian mares were treated daily with either oral gallium nitrate or placebo. Fecal samples were collected at day 320 of gestation (time 1), the week before foaling (time 2), and the week after foaling (time 3). Airborne concentration of R. equi were measured in the stall within 6 hours post foaling using a microbial air sampling system into which standard (100-mm) culture plates with a media selective for R. equi have been loaded. […] The total number of R. equi colonies on a plate was determined by morphologic identification; additionally, 10 colonies identified as R. equi each month were tested by PCR to confirm that the isolates are R. equi.
As part of a non-limiting example of an embodiment of the invention, the following method was employed to determine the effect of oral GAN on the airborne concentration of virulent R. equi in foaling stalls shortly after birth. […] The number of total and virulent R. equi counted on each plate represented the airborne concentrations (cfu/1,000 liters of air). […]

virulent R. equi [11] = test: Fecal concentration of virulent R. equi in peripartum mares (culture, colony immunoblot); format: in vivo, Rhodococcus equi
Description: As part of a non-limiting example of an embodiment of the invention, the effect of oral GaN on the concentrations of virulent R. equi in the feces of the mares was determined. Twenty-one horses were randomly assigned in a paired block design to ensure that 10 mares were part of the treated group and 11 mares were part of the control group. These twenty-one Arabian mares were treated daily with either oral gallium nitrate or placebo. Fecal samples were collected at day 320 of gestation (time 1), the week before foaling (time 2), and the week after foaling (time 3). Airborne concentration of R. equi were measured in the stall within 6 hours post foaling using a microbial air sampling system into which standard (100-mm) culture plates with a media selective for R. equi have been loaded. This sample size of mares was selected on the basis of power calculations using the following assumptions: (a) significance level of P=0.05; (b) statistical power of 90%; (c) a mean of 1×10^4 colony forming units (cfu) per gram of feces among control mares; (d) a mean of 1×10^3 cfu per gram of feces among principal mares; and (e) standard deviations of 1×10^4 and 1×10^3 for the control and principal groups, respectively. The values for fecal concentrations were made on the basis of prior experiences of a collaborator. The total number of R. equi colonies on a plate was determined by morphologic identification; additionally, 10 colonies identified as R. equi each month were tested by PCR to confirm that the isolates are R. equi.
To determine the number of virulent colonies on each plate, a modified colony immunoblot method was used, as previously described (E.g., Grimm M B, Cohen N D, Slovis N M, et al. Evaluation of mares from a Thoroughbred breeding farm as a source of Rhodococcus equi for their foals using quantitative culture and a colony immunoblot assay. Am J Vet Res 2007; 68:63-71). […]
Concentrations of total R. equi were determined by morphological characteristics. The concentration of virulent R. equi was determined using a modified colony immunoblot method. […]

Cc1occc(=O)c1[O-].Cc1occc(=O)c1[O-].Cc1occc(=O)c1[O-].[Ga+3] [Gallium maltolate]
gallium serum concentration [1]: increased
cumulative incidence of R equi pneumonia, control versus treated groups (R equi): no significant differences

O=[N+]([O-])[O-].O=[N+]([O-])[O-].O=[N+]([O-])[O-].[Ga+3] [gallium nitrate]
whole blood concentrations following gallium nitrate administration (FIG. 1) ([2]; 9.2 mg/kg daily for 6 days, two horses): increased
increase in blood concentration over time ([2]; horses): 250%
blood concentration of gallium, starting value ([2]; horses, value the concentration increased from): 0.0000231 µmol/g
blood concentration of gallium, after feeding ([2]; horses, value the concentration increased to): 0.0009004 µmol/g
time of peak gallium in whole blood and serum ([2]; single dose 9.2 mg/kg, 1% gallium nitrate, nasogastric tube): around 24 hours
time by which absorption of gallium was demonstrated ([2]; single dose 9.2 mg/kg, 1% gallium nitrate, nasogastric tube, whole blood and serum): ≤ 6 h
effect on regeneration of bone and cartilage [3]: dose dependent effect
adverse effects in dosed horses ([4]; 9.2 mg/kg single dose or daily for 6 days): None of the horses showed any adverse effects
adverse effects in pregnant mares ([4]; from conception through foaling): no demonstrable adverse effects
adverse event claims in field use ([4]; used in over 10,000 horses): not been a single claim of any adverse event
R. equi growth in experimentally infected mice (R. equi [5]): decrease R. equi growth
highest level of virulent R. equi in feces in any treated mare (virulent R. equi [6]): 17,500 CFU/g
level of virulent R. equi in feces in most treated mares (virulent R. equi [6]): ≤ 1,600 CFU/g
level of virulent R. equi in feces in several treated mares (virulent R. equi [6]): almost undetectable levels
adverse effects in the fetus ([7]; 50 mg/kg and below): no adverse effects
fetal malformations ([7]; 100 mg/kg): cleft palate and renal hypoplasia were increased
fecal concentration of gallium, treated versus control mares (FIG. 3) [8]: significant increase
concentration that killed R. equi in culture (R. equi [9]; previous in vitro data): over 0.050 micromoles/ml
effect on growth of R. equi grown in media (R. equi [9]; reported): significant inhibition in growth and to even kill R. equi
treated mares with positive airborne samples (R. equi [10]): 2 of 10
concentration of R. equi in the feces of the mares (virulent R. equi [11]; oral gallium nitrate daily): reduction
concentrations of virulent R. equi in feces, treatment group compared to control (virulent R. equi [11]; time 3, week after foaling, P<0.05): significantly lower
concentrations of virulent R. equi in feces, time 3 versus time 1 in treatment group (virulent R. equi [11]; week after foaling versus day 320 of gestation, P<0.05): significantly (P<0.05) lower
